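Where inhibition never reached the appropriate level, the endpoint shown equals the highest concentration tested. Otherwise, values were interpolated linearly from a five-concentration, 48-hour dose response in 96-well plates. TGI: total growth inhibition.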
Key:
Experiment in all cases: growth of human tumour cells (NCI), 48 h
[1] = test system: 786-0 renal
[2] = test system: A549 NSCLC
[3] = test system: ACHN renal
[4] = test system: COLO 205 colon
[5] = test system: DU-145 prostate
[6] = test system: EKVX NSCLC
[7] = test system: HCC-2998 colon
[8] = test system: HCT-116 colon
[9] = test system: HCT-15 colon
[10] = test system: HOP-62 NSCLC
[11] = test system: HT29 colon
[12] = test system: K-562 leukemia
[13] = test system: M14 melanoma
[14] = test system: MALME-3M melanoma
[15] = test system: MDA-MB-231 breast
[16] = test system: MDA-MB-435
[17] = test system: MDA-N
[18] = test system: NCI-H226 lung
[19] = test system: NCI-H460 lung
[20] = test system: OVCAR-3 ovarian
[21] = test system: OVCAR-4 ovarian
[22] = test system: OVCAR-5 ovarian
[23] = test system: PC-3 prostate
[24] = test system: SF-295 CNS
[25] = test system: SK-MEL-2 melanoma
[26] = test system: SK-MEL-28 melanoma
[27] = test system: SK-MEL-5 melanoma
[28] = test system: SK-OV-3 ovarian
[29] = test system: SNB-19 CNS
[30] = test system: TK-10 renal
[31] = test system: U251 CNS
[32] = test system: UACC-62 melanoma
[33] = test system: UO-31 renal

Work on `COC(=O)c1cc2c3c(cc(NCCN)c2[nH]1)N(C(=O)c1cc2cc(OC)c(OC)c(OC)c2[nH]1)CC3CCl` (stereo not drawn) yielded a TGI [1] of 283 nM, a TGI [2] of 481 nM and a TGI [3] of 251 nM. It also gave a TGI [4] of 146 nM, a TGI [5] of 51.6 nM and a TGI [6] of 827 nM. It also gave a TGI [7] of 182 nM, a TGI [8] of 25.6 nM and a TGI [9] of 1420 nM. It also gave a TGI [10] of 480 nM, a TGI [11] of 213 nM and a TGI [12] of over 100000 nM. The TGI [13] was 253 nM, the TGI [14] was 123 nM and the TGI [15] was 467 nM. For the same compound, the TGI [16] was 293 nM, the TGI [17] was 207 nM and the TGI [18] was 178 nM. For the same compound, the TGI [19] was 536 nM, the TGI [20] was 569 nM and the TGI [21] was 310 nM. For the same compound, the TGI [22] was 420 nM, the TGI [23] was 1010 nM and the TGI [24] was 858 nM. The TGI [25] was 164 nM, the TGI [26] was 480 nM and the TGI [27] was 165 nM. It also gave a TGI [28] of 5120 nM, a TGI [29] of 51.7 nM and a TGI [30] of 2950 nM. It also gave a TGI [31] of 36.6 nM, a TGI [32] of 176 nM and a TGI [33] of 650 nM.

— PubChem BioAssay (NCI)
